This is an account of results in patent US11427869B2, “T cell balance gene expression, compositions of matters and methods of use thereof” (THE BROAD INSTITUTE, INC., priority 2015, dated 2022).

One assay addresses T1, Rorγt (Mus musculus, UniProt P51450).
T1 construct: expressed in transfected cells; host or cells: EL4 cells stably transfected with Rorγt vector
T1 sequence (P51450 1-495 isoform P51450-2): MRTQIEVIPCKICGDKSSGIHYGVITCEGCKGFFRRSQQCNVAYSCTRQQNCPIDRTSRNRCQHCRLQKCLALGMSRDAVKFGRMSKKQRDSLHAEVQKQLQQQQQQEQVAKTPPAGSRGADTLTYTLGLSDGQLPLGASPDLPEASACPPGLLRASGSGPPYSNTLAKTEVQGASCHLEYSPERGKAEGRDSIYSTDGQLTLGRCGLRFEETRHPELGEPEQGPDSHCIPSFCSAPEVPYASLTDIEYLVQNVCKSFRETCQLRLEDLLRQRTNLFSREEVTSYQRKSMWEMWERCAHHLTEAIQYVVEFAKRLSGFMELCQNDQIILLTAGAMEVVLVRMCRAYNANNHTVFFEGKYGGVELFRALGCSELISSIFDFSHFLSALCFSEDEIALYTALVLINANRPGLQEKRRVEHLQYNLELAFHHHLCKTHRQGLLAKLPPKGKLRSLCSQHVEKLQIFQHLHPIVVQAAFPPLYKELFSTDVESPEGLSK
Put plainly: Dual luciferase reporter assay of Rorγt transcriptional activity in EL4 cells. Format: cell-based. Particulars: EL4 cells, CD5L-RV 100 ng; ligand 5, 0.5 or 0.05 uM. On the procedure:
Cells and supernatant were harvested at 96 hours and subjected to MS/LC. Three independent mouse experiments were performed. […] All ChIP and luciferase assay are representative of at least 3 independent experiments.
Three independent experiments were performed.
In general terms: A reporter such as luciferase makes a cellular process visible.

Another assay deals with Th17 cells. Put plainly: qPCR of Cd5l expression in differentiated T cells. The format is cell-based, mouse. Particulars: naïve T cells differentiated with TGF-β1+IL-6 for 48h, expanded in IL-23 in fresh media, 72h. On the procedure: FIG. 16A-16I. CD5L is a candidate regulator of Th17 cell functional states. (FIG. 16A-FIG. 16C) Single-cell RNA-seq analysis. (FIG. 16A) Cd5l expression of single-cells from in-vitro generated and in-vivo sorted Th17 cells (IL-17.GFP+) from mice at the peak of EAE. […] (FIG. 16D-FIG. 16F) Validation of CD5L expression in vitro. Naïve T cells (CD4+CD62L+CD44−CD25−) were sorted and differentiated as indicated and analyzed by qPCR for CD5L expression at 48h (D) and 72h (E) and by flow cytometry at 48h (F); (E) IL-23 or control was added at 48h in fresh media. (FIG. 16G-FIG. 16I) Validation of Cd5l expression in vivo. (G,H) IL-17A.GFP reporter mice were immunized to induce EAE. Cells were sorted from spleen (G) and CNS (H) at the peak of disease. Cd5l and Il17a expression are measured by qPCR. Figure shown is representative data of three technical replicates from two independent experiments. (I) Cells were sorted from the gut of naïve mice and the number of RNA transcripts measured by nanostring nCounter platform.
Next, Applicants explored whether CD5L expression is associated with less pathogenic Th17 cells in vivo. Applicants analyzed Th17 cells isolated from mice induced with EAE. […] Next, Applicants analyzed Th17 cells from mesenteric lymph nodes (mLN) and lamina propria (LP) of naïve mice, where Th17 cells contribute to tissue homeostasis and mucosal barrier function. […]
(In general: Quantitative PCR measures a nucleic acid by following its amplification.)

With `CC(CO)CCC[C@@H](C)[C@H]1CC[C@H]2[C@@H]3[C@@H](O)C=C4C[C@@H](O)CC[C@]4(C)[C@H]3CC[C@]12C` (stereo partly drawn) [7β, 27-dihydroxycholesterol], the “Il17 reporter transcription (luciferase)” value at Rorγt was “rescued the CD5L-driven suppression of Il17 reporter transcription”.

B1: IL-23: recombinant mouse IL-23 (R&D), 20 ng/ml (protein, UniProt Q9EQ14 22-196; P43432 23-335, looked up)
Interleukin-23 subunit alpha: VPRSSSPDWAQCQQLSRNLCMLAWNAHAPAGHMNLLREEEDEETKNNVPRIQCEDGCDPQGLKDNSQFCLQRIRQGLAFYKHLLDSDIFKGEPALLPDSPMEQLHTSLLGLSQLLQPEDHPRETQQMPSLSSSQQWQRPLLRSKILRSLQAFLAIAARVFAHGAATLTEPLVPTA
Interleukin-12 subunit beta: MWELEKDVYVVEVDWTPDAPGETVNLTCDTPEEDDITWTSDQRHGVIGSGKTLTITVKEFLDAGQYTCHKGGETLSHSHLLLHKKENGIWSTEILKNFKNKTFLKCEAPNYSGRFTCSWLVQRNMDLKFNIKSSSSSPDSRAVTCGMASLSAEKVTLDQRDYEKYSVSCQEDVTCPTAEETLPIELALEARQQNKYENYSTSFFIRDIIKPDPPKNLQMKPLKNSQVEVSWEYPDSWSTPHSYFSLKFFVRIQRKKEKMKETEEGCNQKGAFLVEKTSTEVQCKGGNVCVQAQDRYYNSSCSKWACVPCRVRS
Consider B1, for which, in the assay on Th17 cells, the “Cd5l expression (qPCR)” value was “suppressed”.
